Test results reported in US10253081B2, “Glucagon analogues” (Zealand Pharma A/S, priority 2012, dated 2019).
*1 amine or outer side, *2 acyl side, *3 side chain or, on linkers, in order; H or OH if unused. Where a SMILES comes first, the peptide text is derived from it. Side-chain parts run from the residue outwards. [ ]: non-standard residue; d: D form. The star is where a group is joined. γGlu = O=C(O)[C@H](CCC(=O)[*:2])N[*:1]; Palmitoyl = CCCCCCCCCCCCCCCC(=O)*; Aib = CC(C)(N)C(=O)O

Assay: Sub-chronic effects on adiposity/body weight in diet-induced obese mice
Type: in vivo, C57BL/6J mice
Conditions: DIO mice, 5 nmol/kg s.c. twice daily for 31 days
Description: Male C57BL/6J mice (Taconic A/S, Denmark) at an age of 5 weeks were maintained on a 12:12 hour light-dark cycle on a high-fat diet (60% of total energy from fat, D12492, Research Diet Inc.) for 20 weeks. All mice (housed 2 per cage) were then mock-treated for a week to acclimatize the animals to handling and injections. Subsequently, the mice were stratified according to body fat mass (measured by magnetic resonance technique) and body weight into 9 groups (n=9-12). Animals were thereafter treated twice daily with subcutaneous injections (5 ml/kg) of vehicle (25 mM phosphate buffer, pH 7.4) or test substances (5 nmol/kg per administration, in equivalent amount of vehicle) for a total of 31 days. The daily injections were given at the start and at the end of the light phase. Body weight, food and water intake were determined daily throughout the study. The data are presented in Table 6 as mean body weight change±S.E.M. S.E.M. is defined as standard error of the mean and was calculated using the formula: S.E.M.=SD/square root (n), where SD is the standard deviation and n the number of observations (in this case animals/group).
Statistical analyses were performed using Graph Pad Prism version 5. The measured parameters were compared using one-way ANOVA followed by Dunnett's multiple comparison test. Differences were considered statistically significant at p<0.05.

SMILES	Mean body weight change [%]
CCCCCCCCCCCCCCCC(=O)N[C@@H](CCC(=O)NCCCC[C@H](NC(=O)[C@H](CCC(=O)O)NC(=O)[C@H](CC(=O)O)NC(=O)[C@H](CC(C)C)NC(=O)[C@H](Cc1ccc(O)cc1)NC(=O)[C@H](CCCCN)NC(=O)[C@H](CO)NC(=O)[C@H](Cc1ccc(O)cc1)NC(=O)[C@H](CC(=O)O)NC(=O)[C@H](CO)NC(=O)[C@@H](NC(=O)[C@H](Cc1ccccc1)NC(=O)[C@@H](NC(=O)CNC(=O)[C@H](CCC(N)=O)NC(=O)C(C)(C)NC(=O)[C@@H](N)Cc1c[nH]cn1)[C@@H](C)O)[C@@H](C)O)C(=O)N[C@@H](C)C(=O)N[C@@H](C)C(=O)N[C@@H](CCCCN)C(=O)N[C@@H](CC(=O)O)C(=O)N[C@@H](Cc1ccccc1)C(=O)N[C@H](C(=O)N[C@@H](CCC(=O)O)C(=O)N[C@@H](Cc1c[nH]c2ccccc12)C(=O)N[C@@H](CC(C)C)C(=O)N[C@@H](CCC(=O)O)C(=O)N[C@@H](CO)C(=O)N[C@@H](C)C(N)=O)[C@@H](C)CC)C(=O)O [Compound 15, H-H-Aib-QGTFTSDYSKYLDE-K(Hexadecanoyl-isoGlu)-AAKDFIEWLESA-NH2]	−10.9
CCCCCCCCCCCCCCCC(=O)N[C@@H](CCC(=O)NCCCC[C@H](NC(=O)[C@H](CCC(=O)O)NC(=O)[C@H](CC(=O)O)NC(=O)[C@H](CC(C)C)NC(=O)[C@H](Cc1ccc(O)cc1)NC(=O)[C@H](CCCCN)NC(=O)[C@H](CO)NC(=O)[C@H](Cc1ccc(O)cc1)NC(=O)[C@H](CC(=O)O)NC(=O)[C@H](CO)NC(=O)[C@@H](NC(=O)[C@H](Cc1ccccc1)NC(=O)[C@@H](NC(=O)CNC(=O)[C@H](CCC(N)=O)NC(=O)C(C)(C)NC(=O)[C@@H](N)Cc1c[nH]cn1)[C@@H](C)O)[C@@H](C)O)C(=O)N[C@@H](CCCNC(=N)N)C(=O)N[C@@H](C)C(=O)N[C@@H](CCCCN)C(=O)N[C@@H](CC(=O)O)C(=O)N[C@@H](Cc1ccccc1)C(=O)N[C@H](C(=O)N[C@@H](CCC(=O)O)C(=O)N[C@@H](Cc1c[nH]c2ccccc12)C(=O)N[C@@H](CC(C)C)C(=O)N[C@@H](CC(C)C)C(=O)N[C@@H](CO)C(=O)N[C@@H](C)C(=O)O)[C@@H](C)CC)C(=O)O [Compound 14, H-H-Aib-QGTFTSDYSKYLDE-K(Hexadecanoyl-isoGlu)-RAKDFIEWLLSA-OH] (H-H[Aib]QGTFTSDYSKYLDEK([γGlu-Palmitoyl])RAKDFIEWLLSA-OH)	−9.5
CCCCCCCCCCCCCCCC(=O)N[C@@H](CCC(=O)NCCCC[C@H](NC(=O)[C@H](CO)NC(=O)[C@H](CC(=O)O)NC(=O)[C@H](CC(C)C)NC(=O)[C@H](Cc1ccc(O)cc1)NC(=O)[C@H](CCCCN)NC(=O)[C@H](CO)NC(=O)[C@H](Cc1ccc(O)cc1)NC(=O)[C@H](CC(=O)O)NC(=O)[C@H](CO)NC(=O)[C@@H](NC(=O)[C@H](Cc1ccccc1)NC(=O)[C@@H](NC(=O)CNC(=O)[C@H](CCC(N)=O)NC(=O)[C@H](CO)NC(=O)[C@@H](N)Cc1c[nH]cn1)[C@@H](C)O)[C@@H](C)O)C(=O)N[C@@H](C)C(=O)N[C@@H](C)C(=O)N[C@@H](CCC(=O)O)C(=O)N[C@@H](CC(=O)O)C(=O)N[C@@H](Cc1ccccc1)C(=O)N[C@H](C(=O)N[C@@H](CCC(=O)O)C(=O)N[C@@H](Cc1c[nH]c2ccccc12)C(=O)N[C@@H](CC(C)C)C(=O)N[C@@H](CC(C)C)C(=O)N[C@@H](CCCNC(=N)N)C(=O)N[C@@H](C)C(N)=O)C(C)C)C(=O)O [Compound 7, H-HSQGTFTSDYSKYLDS-K(Hexadecanoyl-isoGlu)-AAEDFVEWLLRA-NH2] (H-HSQGTFTSDYSKYLDSK([γGlu-Palmitoyl])AAEDFVEWLLRA-NH2)	−8.7
CCCCCCCCCCCCCCCC(=O)N[C@@H](CCC(=O)NCCCC[C@H](NC(=O)[C@H](CO)NC(=O)[C@H](CC(=O)O)NC(=O)[C@H](CC(C)C)NC(=O)[C@H](Cc1ccc(O)cc1)NC(=O)[C@H](CCCCN)NC(=O)[C@H](CO)NC(=O)[C@H](Cc1ccc(O)cc1)NC(=O)[C@H](CC(=O)O)NC(=O)[C@H](CO)NC(=O)[C@@H](NC(=O)[C@H](Cc1ccccc1)NC(=O)[C@@H](NC(=O)CNC(=O)[C@H](CCC(N)=O)NC(=O)[C@H](CO)NC(=O)[C@@H](N)Cc1c[nH]cn1)[C@@H](C)O)[C@@H](C)O)C(=O)N[C@@H](C)C(=O)N[C@@H](C)C(=O)N[C@@H](Cc1c[nH]cn1)C(=O)N[C@@H](CC(=O)O)C(=O)N[C@@H](Cc1ccccc1)C(=O)N[C@H](C(=O)N[C@@H](CCC(=O)O)C(=O)N[C@@H](Cc1c[nH]c2ccccc12)C(=O)N[C@@H](CC(C)C)C(=O)N[C@@H](CC(C)C)C(=O)N[C@@H](CO)C(=O)N[C@@H](C)C(=O)O)C(C)C)C(=O)O [Compound 2, H-HSQGTFTSDYSKYLDS-K(Hexadecanoyl-isoGlu)-AAHDFVEWLLSA-OH] (H-HSQGTFTSDYSKYLDSK([γGlu-Palmitoyl])AAHDFVEWLLSA-OH)	−5.1
CCCCCCCCCCCCCCCC(=O)N[C@@H](CCC(=O)NCCCC[C@H](NC(=O)[C@H](CO)NC(=O)[C@H](CC(=O)O)NC(=O)[C@H](CC(C)C)NC(=O)[C@H](Cc1ccc(O)cc1)NC(=O)[C@H](CCCCN)NC(=O)[C@H](CO)NC(=O)[C@H](Cc1ccc(O)cc1)NC(=O)[C@H](CC(=O)O)NC(=O)[C@H](CO)NC(=O)[C@@H](NC(=O)[C@H](Cc1ccccc1)NC(=O)[C@@H](NC(=O)CNC(=O)[C@H](CCC(N)=O)NC(=O)C(C)(C)NC(=O)[C@@H](N)Cc1c[nH]cn1)[C@@H](C)O)[C@@H](C)O)C(=O)N[C@@H](C)C(=O)N[C@@H](C)C(=O)N[C@@H](CCC(=O)O)C(=O)N[C@@H](CC(=O)O)C(=O)N[C@@H](Cc1ccccc1)C(=O)N[C@H](C(=O)N[C@@H](CCC(=O)O)C(=O)N[C@@H](Cc1c[nH]c2ccccc12)C(=O)N[C@@H](CC(C)C)C(=O)N[C@@H](CCC(=O)O)C(=O)N[C@@H](CO)C(=O)N[C@@H](C)C(N)=O)C(C)C)C(=O)O [Compound 16, H-H-Aib-QGTFTSDYSKYLDS-K(Hexadecanoyl-isoGlu)-AAEDFVEWLESA-NH2] (H-H[Aib]QGTFTSDYSKYLDSK([γGlu-Palmitoyl])AAEDFVEWLESA-NH2)	−12.2
